Results on 18 compounds are retold here after patent US10633375B2, “Oxopicolinamide derivative, preparation method therefor and pharmaceutical use thereof” (Jiangsu Hengrui Medicine Co., Ltd., priority 2016, dated 2020).

Data set [1] can be described thus: Pharmacokinetics assay in rats after intragastrical administration. As to conditions: SD rats, intragastric, 2 mg/kg; for AUC / Cmax / Vd/F / CL/F / half-life / MRT: both sexes, Sprague-Dawley, rat, plasma, po; for AUC: read-out: Area Under Curve AUC; for Cmax: read-out: Plasma Concentration Cmax; for Vd/F: read-out: Apparent Distribution Volume Vz/F; for CL/F: read-out: Clearance CLz/F; for half-life: read-out: Half-Life T½ (converted); for MRT: read-out: Mean Residence Time MRT. It counts as in vivo, Sprague-Dawley (SD) rats. The source says: Test Example 3. Pharmacokinetics Assay of the Compounds of the Present Invention
Rats were used as test animals. […] The pharmacokinetic behavior of the compounds of the present invention was studied and evaluated in rats.
56 healthy adult Sprague-Dawley (SD) rats, half male and half female, were purchased from SINO-BRITSH SIPPR/BK LAB. ANIMAL LTD., CO, with License No.: SCXK (Shanghai) 2008-0016.
2.3 Preparation of the Test Compounds
A certain amount of the test compound was weighed, and added with 5% by volume of DMSO, 5% by volume of Tween 80 and 90% normal saline to prepare a 0.2 mg/mL colorless, clear and transparent solution.
After an overnight fast, SD rats were intragastrically administered at a dose of 2.0 mg/kg and an administration volume of 10.0 mL/kg.
Blood (0.2 mL) was taken from the orbital sinus before administration and at 0.5, 1.0, 2.0, 4.0, 6.0, 8.0, 11.0 and 24.0 hours after administration. The samples were stored in heparin anticoagulation tubes, and centrifuged for 10 minutes at 3500 rpm at 4° C. to separate the blood plasma. The plasma samples were stored at −20° C. The rats were fed 2 hours after administration.
The content of the test compound in the plasma of rats after intragastric administration of different concentrations of the drug was determined: 25 μL of rat plasma at each time after administration was taken and added with 30 μL (100 ng/mL) of the internal standard solution of camptothecin and 200 μL of acetonitrile, shaken vertically for 5 minutes, and centrifuged for 10 minutes (4000 rpm). 3.0 μL of the supernatant was taken from the plasma samples for LC/MS/MS analysis.
4. Results of Pharmacokinetic Parameters
Pharmacokinetic parameters of the compounds of the present invention in rats are shown below.

For a further data set, the system named is human blood. Briefly: In vitro anticoagulant effect on human blood (APTT, CT2). As to conditions: Table 2; concentration corresponding to 2 times the APTT of the blank control, human plasma. The protocol:
Test Example 2: Determination of In Vitro Anticoagulant Effect of the Compounds of the Present Invention on Human Blood
(§1) 1. Experimental Materials
Plasma: Human blood was collected in blood collection tubes containing no anticoagulant, and then 3.8% sodium citrate (volume ratio 1:9) was added. The tubes were centrifuged at 2500 rpm for 10 minutes at room temperature, and then the plasma was collected and stored at −80° C.;
Reagents: APTT reagent (Activated partial thromboplastin time assay kit, SIEMENS, Art. No. B4218-1), calcium chloride solution;
Instrument: Coagulation instrument (SYSMEX, CA-500).
The divided plasma was melted at room temperature and mixed well. 10000 μM the test compound dissolved in 100% DMSO was diluted to 3000, 300, 200, 150, 75, 30, 10, 3, 0.3 μM with 100% DMSO, and the blank was 100% DMSO. The reagent, plasma, and compound were placed in corresponding positions in the coagulation instrument, and APTT detection of the compound was carried out.
Curve fitting was carried out by graphpad and CT2 was calculated, i.e., the concentration of the compound corresponding to 2 times the APTT of the blank control.

Data set [2] has as its target Coagulation Factor XIa protease (Homo sapiens (Human), UniProt P03951). Briefly: Inhibition of Factor XIa detected by absorption photometry. It is filed as biochemical. As to conditions: absorbance at 405 nm, 10 minutes at 37° C. The protocol:
Test Example 1: Biological Activity of the Compounds of the Present Invention on
The Inhibition of Factor XIa Detected by Absorption Photometry
as §1
Enzyme: Coagulation Factor XIa protease (Abcam, Art. No ab62411)
Substrate: Coagulation Factor XIa specific substrate (HYPHEN1310 med, Art. No. Biophen cs-21(66))
2. Experimental Procedure
20 mM of test compound dissolved in 100% DMSO was diluted to 200, 20, 2, 0.2, 0.02, 0.002 μM with 100% DMSO; 1 μl of the compound was added to each well in a 384-well plate, blank and control wells were replaced with DMSO. The plate was centrifuged to remove the compound to the bottom. 10 μl (2.5 μg/ml) of FXIa enzyme solution was added to each well, and 10 μl of buffer was added to the blank well. The plate was centrifuged to remove the enzyme solution to the bottom.
Finally, 10 μl of 2 mM substrate were added to each well, and the plate was centrifuged to remove the substrate solution to the bottom.
The plate was incubated for 10 minutes at 37° C.; and then the absorbance was measured at 405 nm.

Coagulation Factor XIa protease, sequence (P03951 388-625): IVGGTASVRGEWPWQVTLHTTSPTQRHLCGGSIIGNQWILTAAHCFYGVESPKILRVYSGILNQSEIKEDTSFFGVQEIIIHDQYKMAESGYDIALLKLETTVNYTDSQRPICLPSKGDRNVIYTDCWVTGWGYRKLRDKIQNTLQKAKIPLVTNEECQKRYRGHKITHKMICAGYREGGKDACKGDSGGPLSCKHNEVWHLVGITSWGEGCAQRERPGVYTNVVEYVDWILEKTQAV
Coagulation Factor XIa protease, sequence (P03951 19-387 partner): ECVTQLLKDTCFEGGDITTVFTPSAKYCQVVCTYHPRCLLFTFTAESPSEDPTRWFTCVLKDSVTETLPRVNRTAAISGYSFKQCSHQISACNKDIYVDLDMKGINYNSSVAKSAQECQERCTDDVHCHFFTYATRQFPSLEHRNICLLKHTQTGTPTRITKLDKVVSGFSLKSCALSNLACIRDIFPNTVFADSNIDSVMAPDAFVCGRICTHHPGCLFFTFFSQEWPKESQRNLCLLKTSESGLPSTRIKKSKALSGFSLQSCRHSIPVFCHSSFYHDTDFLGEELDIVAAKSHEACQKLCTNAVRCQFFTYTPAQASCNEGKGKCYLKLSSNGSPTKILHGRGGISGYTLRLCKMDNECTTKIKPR

For the compound `COc1cn([C@@H](Cc2ccncc2)C(=O)Nc2ccc(C(=O)O)cc2)c(=O)cc1-c1cc(Cl)ccc1C#N` [Comparative Example 1, (S)-4-(2-(4-(5-chloro-2-cyanophenyl)-5-methoxy-2-oxopyridin-1(21)-yl)-3-(pyridin-4-yl)propanamido)benzoic acid, reference compound], in data set [1], the AUC is 7.27 ± 3.37 ng·h/mL and the Cmax was 7.02 ± 2.97 ng/mL.
For the compound `CCC(=O)c1ccc(Cl)cc1-c1cc(=O)n([C@H](CCOC(C)(C)C)C(=O)Nc2ccc(C(=O)O)cc2)cc1OC` [Example 109, (R)-4-(4-(tert-butoxy)-2-(4-(5-chloro-2-propionylphenyl)-5-methoxy-2-oxopyridin-1(2H)-yl)butanamido)benzoic acid], the “CT2, concentration doubling APTT” value in the data set on human blood is >10000 µM.
Compound `COc1cn([C@@H](Cc2cccnc2)C(=O)Nc2ccc(C(=O)O)cc2)c(=O)cc1-c1cc(Cl)ccc1C(C)=O` [Example 84, (S)-4-(2-(4-(2-acetyl-5-chlorophenyl)-5-methoxy-2-oxopyridin-1(2H)-yl)-3-(pyridin-3-yl)propanamido)benzoic acid] had an IC50 in data set [2] of 42 nM. In data set [1], the “AUC difference, Example 84 versus Comparative Example 1” value was found to be 7.5 times; the “Cmax difference, Example 84 versus Comparative Example 1” value came to 6.9 times; the Vd/F was 37.9 ± 8.23 L/kg; the AUC worked out at 54.6 ± 19.1 ng·h/mL. In addition, in data set [1], the CL/F worked out at 673 ± 235 mL/min/kg, the half-life was 0.68 ± 0.14 h, the MRT was 1.2 ± 0.2 h and the Cmax came out at 48.8 ± 8.8 ng/mL.
The compound `COc1cn([C@@H](CC2CCC2)C(=O)Nc2ccc(C(=O)O)cc2)c(=O)cc1-c1cc(Cl)ccc1C(C)=O` [Example 171, (S)-4-(2-(4-(2-acetyl-5-chlorophenyl)-5-methoxy-2-oxopyridin-1(2H)-yl)-3-cyclobutylpropanamido)benzoic acid] returned an IC50 in data set [2] of 35 nM. In data set [1], the Vd/F turned out to be 6.24 ± 2.15 L/kg, the AUC stood at 701 ± 175 ng·h/mL, the CL/F worked out at 49.9 ± 12.5 mL/min/kg and the half-life is 1.45 ± 0.32 h. Further, in data set [1], the MRT is 1.71 ± 0.32 h and the Cmax stood at 462 ± 116 ng/mL.
`COc1cn(C(Cc2ccccc2)C(=O)Nc2ccc(C(=O)O)cc2F)c(=O)cc1-c1cc(Cl)ccc1C(C)=O` (stereo not drawn) [Example 29, 4-(2-(4-(2-acetyl-5-chlorophenyl)-5-methoxy-2-oxopyridin-1 (2H)-yl)-3-phenylpropanamido)-3-fluorobenzoic acid] returned an IC50 in data set [2] of 90 nM. For the same compound, in data set [1], the Vd/F turned out to be 45.4 ± 16.5 L/kg, the AUC came out at 382 ± 98 ng·h/mL, the CL/F was found to be 92.5 ± 28.3 mL/min/kg and the half-life is 6.06 ± 2.99 h. In data set [1], the MRT came to 5 ± 2.57 h and the Cmax came to 167 ± 45 ng/mL.
Compound `CCC(=O)c1ccc(Cl)cc1-c1cc(=O)n(C(CCOC(C)(C)C)C(=O)Nc2ccc3nn(C)cc3c2)cc1OC` (stereo not drawn) [Example 141] displayed an IC50 in data set [2] of 66 nM.
Same read-out and setting: to `COc1cn(C(CC2CC(C)(C)C2)C(=O)Nc2ccc(C(=O)O)cc2)c(=O)cc1-c1cc(Cl)ccc1C(C)=O` (stereo not drawn) [Example 173, 4-(2-(4-(2-acetyl-5-chlorophenyl)-5-methoxy-2-oxopyridin-1(2H)-yl)-3-(3,3-dimethylcyclobutyl)propanamido)benzoic acid] belongs 100 nM.
Still for that read-out and setting: to `COCCC(C(=O)Nc1ccc(C(=O)O)cc1)n1cc(OC)c(-c2cc(Cl)ccc2C(C)=O)cc1=O` (stereo not drawn) [Example 147, 4-(2-(4-(2-acetyl-5-chlorophenyl)-5-methoxy-2-oxopyridin-1(2H)-yl)-4-methoxybutanamido)benzoic acid] belongs 56 nM; to `COc1cn([C@H](CC2CCC2)C(=O)Nc2ccc(C(=O)O)cc2)c(=O)cc1-c1cc(Cl)ccc1C(C)=O` [Example 172, (R)-4-(2-(4-(2-acetyl-5-chlorophenyl)-5-methoxy-2-oxopyridin-1(2H)-yl)-3-cyclobutylpropanamido)benzoic acid], 8920 nM.
On the same count and under the same terms, to `CCC(=O)c1ccc(Cl)cc1-c1cc(=O)n(C(CCOC(C)(C)C)C(=O)Nc2ccc3ncncc3c2)cc1OC` (stereo not drawn) [Example 121, 4-(tert-butoxy)-2-(4-(5-chloro-2-propionylphenyl)-5-methoxy-2-oxopyridin-1(2H)-yl)-N-(quinazolin-6-yl)butanamide] belongs 67 nM; to `COc1cn([C@@H](CCOC(C)(C)C)C(=O)Nc2ccc(C(N)=O)cc2)c(=O)cc1-c1cc(Cl)ccc1C(C)=O` [Example 122, (S)-4-(2-(4-(2-acetyl-5-chlorophenyl)-5-methoxy-2-oxopyridin-1(2H)-yl)-4-(tert-butoxy)butanamido)benzamide], 100 nM; to `COC(=O)Nc1ccc(NC(=O)[C@H](Cc2ccccc2)n2cc(OC)c(-c3cc(Cl)ccc3C(C)=O)cc2=O)cc1` [Example 12, methyl (S)-(4-(2-(4-(2-acetyl-5-chlorophenyl)-5-methoxy-2-oxopyridin-1(2H)-yl)-3-phenylpropanamido)phenyl)carbamate], 42 nM.
On to `COc1cn(C(Cc2cccc(C)c2)C(=O)Nc2ccc(C(=O)O)cc2)c(=O)cc1-c1cc(Cl)ccc1C(C)=O` (stereo not drawn) [Example 67, 4-(2-(4-(2-acetyl-5-chlorophenyl)-5-methoxy-2-oxopyridin-1(2H)-yl)-3-(m-tolyl)propan amido)benzoic acid], for which the midpoint of inhibition in data set [2], the IC50, lay at 35 nM.
For `COc1cn([C@@H](Cc2ccccc2)C(=O)Nc2ccc(C(=O)NC3CC3)cc2)c(=O)cc1-c1cc(Cl)ccc1C(C)=O` [Example 43, (S)-4-(2-(4-(2-acetyl-5-chlorophenyl)-5-methoxy-2-oxopyridin-1 (2H)-yl)-3-phenylpropanamido)-N-cyclopropylbenzamide], in data set [2], 47 nM corresponded to half-maximal inhibition (IC50).
Still for that read-out and setting: with `COc1cn(C(Cc2ccc(C#N)cc2)C(=O)Nc2ccc(C(=O)O)cc2)c(=O)cc1-c1cc(Cl)ccc1C(C)=O` (stereo not drawn) [Example 90, 4-(2-(4-(2-acetyl-5-chlorophenyl)-5-methoxy-2-oxopyridin-1(2H)-yl)-3-(4-cyanophenyl)propanamido)benzoic acid] the figure was 100 nM; with `COc1cn(C(Cc2ccncc2)C(=O)Nc2ccc(C(=O)O)cc2)c(=O)cc1-c1cc(Cl)ccc1C(C)=O` (stereo not drawn) [Example 86, 4-(2-(4-(2-acetyl-5-chlorophenyl)-5-methoxy-2-oxopyridin-1(2H)-yl)-3-(pyridin-4-yl)propanamido)benzoic acid], 99 nM.
Still for that read-out and setting: with `COc1cn(C(CC2(C)CC2)C(=O)Nc2ccc(C(=O)O)cc2)c(=O)cc1-c1cc(Cl)ccc1C(C)=O` (stereo not drawn) [Example 158, 4-(2-(4-(2-acetyl-5-chlorophenyl)-5-methoxy-2-oxopyridin-1(2H)-yl)-3-(1-methylcyclopropyl)propanamido)benzoic acid] the figure was 46 nM.
The compound `COc1ccccc1CC(C(=O)Nc1ccc(C(=O)O)cc1)n1cc(OC)c(-c2cc(Cl)ccc2C(C)=O)cc1=O` (stereo not drawn) [Example 78, 4-(2-(4-(2-acetyl-5-chlorophenyl)-5-methoxy-2-oxopyridin-1(2H)-yl)-3-(2-methoxyphenyl)propanamido)benzoic acid] had an IC50 in data set [2] of 72 nM. This IC50 lies about 1.6-fold higher than the previous one.

As usually defined, the AUC is the area under the concentration-time curve, a measure of exposure. The IC50 is the concentration needed to halve the response being measured. A higher IC50 goes with a need for much substance. As a reminder, the half-life is the time needed for the level to fall by half in the phase considered. As a reminder, the MRT is a mean duration of stay, worked out from the concentration-time curve.
